Measured values as given in PubChem BioAssay (NCI).
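Interpolation was linear, between the two tested concentrations surrounding the appropriate level; five concentrations were tested over 48 hours in 96-well plates. The concentration for full growth arrest is given as TGI.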

What was measured:
Assay in all cases: DTP human tumour cell line panel, 48 h
PC-3 prostate = test system: PC-3 prostate
RPMI-8226 leukemia = test system: RPMI-8226 leukemia
A549 NSCLC = test system: A549 NSCLC
SN12C renal = test system: SN12C renal
RXF 393 renal = test system: RXF 393 renal
T-47D breast = test system: T-47D breast
UACC-257 melanoma = test system: UACC-257 melanoma
NCI-H226 lung = test system: NCI-H226 lung
HOP-62 NSCLC = test system: HOP-62 NSCLC
COLO 205 colon = test system: COLO 205 colon
TK-10 renal = test system: TK-10 renal
MDA-MB-231 breast = test system: MDA-MB-231 breast
NCI/ADR-RES ovarian = test system: NCI/ADR-RES ovarian
SF-539 CNS = test system: SF-539 CNS
DU-145 prostate = test system: DU-145 prostate
MDA-MB-435 = test system: MDA-MB-435
LOX IMVI melanoma = test system: LOX IMVI melanoma
U251 CNS = test system: U251 CNS
HCT-116 colon = test system: HCT-116 colon
MCF7 breast = test system: MCF7 breast
OVCAR-3 ovarian = test system: OVCAR-3 ovarian
ACHN renal = test system: ACHN renal
MDA-N = test system: MDA-N
SF-268 CNS = test system: SF-268 CNS
MOLT-4 leukemia = test system: MOLT-4 leukemia
OVCAR-5 ovarian = test system: OVCAR-5 ovarian
SK-MEL-28 melanoma = test system: SK-MEL-28 melanoma
HS 578T breast = test system: HS 578T breast
SNB-19 CNS = test system: SNB-19 CNS
MALME-3M melanoma = test system: MALME-3M melanoma
HOP-92 NSCLC = test system: HOP-92 NSCLC
KM12 colon = test system: KM12 colon
SW-620 colon = test system: SW-620 colon
SNB-75 CNS = test system: SNB-75 CNS
CAKI-1 renal = test system: CAKI-1 renal
SF-295 CNS = test system: SF-295 CNS
SK-MEL-5 melanoma = test system: SK-MEL-5 melanoma
EKVX NSCLC = test system: EKVX NSCLC
SK-OV-3 ovarian = test system: SK-OV-3 ovarian
SK-MEL-2 melanoma = test system: SK-MEL-2 melanoma
IGROV1 ovarian = test system: IGROV1 ovarian
OVCAR-4 ovarian = test system: OVCAR-4 ovarian
786-0 renal = test system: 786-0 renal
SR leukemia = test system: SR leukemia
NCI-H23 lung = test system: NCI-H23 lung
K-562 leukemia = test system: K-562 leukemia
HL-60(TB) leukemia = test system: HL-60(TB) leukemia
HT29 colon = test system: HT29 colon
NCI-H522 lung = test system: NCI-H522 lung
UACC-62 melanoma = test system: UACC-62 melanoma
CCRF-CEM leukemia = test system: CCRF-CEM leukemia
UO-31 renal = test system: UO-31 renal
HCT-15 colon = test system: HCT-15 colon
BT-549 breast = test system: BT-549 breast
M14 melanoma = test system: M14 melanoma
HCC-2998 colon = test system: HCC-2998 colon
OVCAR-8 ovarian = test system: OVCAR-8 ovarian
NCI-H460 lung = test system: NCI-H460 lung
A498 renal = test system: A498 renal

C[n+]1cn(C2=C([O-])c3ccccc3C(=O)/C2=N\S(=O)(=O)c2ccccc2)c2ccccc21
TGI (PC-3 prostate): > 100 µM
TGI (RPMI-8226 leukemia): > 100 µM
TGI (A549 NSCLC): > 100 µM
TGI (SN12C renal): > 100 µM
TGI (RXF 393 renal): 85.1 µM
TGI (T-47D breast): > 100 µM
TGI (UACC-257 melanoma): 76.6 µM
TGI (NCI-H226 lung): > 100 µM
TGI (HOP-62 NSCLC): > 100 µM
TGI (COLO 205 colon): 26.1 µM
TGI (TK-10 renal): 70.5 µM
TGI (MDA-MB-231 breast): > 100 µM
TGI (NCI/ADR-RES ovarian): > 100 µM
TGI (SF-539 CNS): > 100 µM
TGI (DU-145 prostate): > 100 µM
TGI (MDA-MB-435): 6.34 µM
TGI (LOX IMVI melanoma): 76.4 µM
TGI (U251 CNS): 50.7 µM
TGI (HCT-116 colon): > 100 µM
TGI (MCF7 breast): > 100 µM
TGI (OVCAR-3 ovarian): 44.9 µM
TGI (ACHN renal): > 100 µM
TGI (MDA-N): 26.6 µM
TGI (SF-268 CNS): > 100 µM
TGI (MOLT-4 leukemia): > 100 µM
TGI (OVCAR-5 ovarian): > 100 µM
TGI (SK-MEL-28 melanoma): > 100 µM
TGI (HS 578T breast): > 100 µM
TGI (SNB-19 CNS): 78.5 µM
TGI (MALME-3M melanoma): 5.88 µM
TGI (HOP-92 NSCLC): > 100 µM
TGI (KM12 colon): > 100 µM
TGI (SW-620 colon): > 100 µM
TGI (SNB-75 CNS): > 100 µM
TGI (CAKI-1 renal): > 100 µM
TGI (SF-295 CNS): > 100 µM
TGI (SK-MEL-5 melanoma): > 100 µM
TGI (EKVX NSCLC): > 100 µM
TGI (SK-OV-3 ovarian): > 100 µM
TGI (SK-MEL-2 melanoma): 44.1 µM
TGI (IGROV1 ovarian): 87.3 µM
TGI (OVCAR-4 ovarian): 37.8 µM
TGI (786-0 renal): > 100 µM
TGI (SR leukemia): > 100 µM
TGI (NCI-H23 lung): 34.7 µM
TGI (K-562 leukemia): > 100 µM
TGI (HL-60(TB) leukemia): 86.1 µM
TGI (HT29 colon): > 100 µM
TGI (NCI-H522 lung): 26.8 µM
TGI (UACC-62 melanoma): 45.6 µM
TGI (CCRF-CEM leukemia): > 100 µM
TGI (UO-31 renal): > 100 µM
TGI (HCT-15 colon): > 100 µM
TGI (BT-549 breast): 86.1 µM
TGI (M14 melanoma): 48.3 µM
TGI (HCC-2998 colon): 46.7 µM
TGI (OVCAR-8 ovarian): 77.4 µM
TGI (NCI-H460 lung): 84.5 µM

C=CCSc1nc2c(N)ncnc2n1C1OC(CO)C(O)C1O (stereo not given)
TGI (PC-3 prostate): > 100 µM
TGI (RPMI-8226 leukemia): > 100 µM
TGI (A549 NSCLC): > 100 µM
TGI (SN12C renal): > 100 µM
TGI (RXF 393 renal): > 100 µM
TGI (T-47D breast): > 100 µM
TGI (UACC-257 melanoma): > 100 µM
TGI (NCI-H226 lung): > 100 µM
TGI (HOP-62 NSCLC): > 100 µM
TGI (COLO 205 colon): > 100 µM
TGI (TK-10 renal): > 100 µM
TGI (MDA-MB-231 breast): > 100 µM
TGI (NCI/ADR-RES ovarian): > 100 µM
TGI (SF-539 CNS): > 100 µM
TGI (DU-145 prostate): > 100 µM
TGI (MDA-MB-435): > 100 µM
TGI (A498 renal): > 100 µM
TGI (LOX IMVI melanoma): > 100 µM
TGI (U251 CNS): > 100 µM
TGI (HCT-116 colon): > 100 µM
TGI (MCF7 breast): > 100 µM
TGI (OVCAR-3 ovarian): > 100 µM
TGI (ACHN renal): > 100 µM
TGI (MDA-N): > 100 µM
TGI (SF-268 CNS): > 100 µM
TGI (MOLT-4 leukemia): > 100 µM
TGI (OVCAR-5 ovarian): > 100 µM
TGI (SK-MEL-28 melanoma): > 100 µM
TGI (HS 578T breast): > 100 µM
TGI (SNB-19 CNS): > 100 µM
TGI (MALME-3M melanoma): > 100 µM
TGI (HOP-92 NSCLC): > 100 µM
TGI (KM12 colon): > 100 µM
TGI (SW-620 colon): > 100 µM
TGI (SNB-75 CNS): > 100 µM
TGI (CAKI-1 renal): > 100 µM
TGI (SF-295 CNS): > 100 µM
TGI (SK-MEL-5 melanoma): > 100 µM
TGI (EKVX NSCLC): > 100 µM
TGI (SK-OV-3 ovarian): > 100 µM
TGI (SK-MEL-2 melanoma): > 100 µM
TGI (IGROV1 ovarian): > 100 µM
TGI (OVCAR-4 ovarian): > 100 µM
TGI (786-0 renal): > 100 µM
TGI (SR leukemia): > 100 µM
TGI (NCI-H23 lung): > 100 µM
TGI (K-562 leukemia): > 100 µM
TGI (HL-60(TB) leukemia): > 100 µM
TGI (HT29 colon): > 100 µM
TGI (NCI-H522 lung): > 100 µM
TGI (UACC-62 melanoma): > 100 µM
TGI (UO-31 renal): > 100 µM
TGI (HCT-15 colon): > 100 µM
TGI (BT-549 breast): > 100 µM
TGI (M14 melanoma): > 100 µM
TGI (OVCAR-8 ovarian): > 100 µM
TGI (NCI-H460 lung): > 100 µM
